“And” between values parts separate entries of the source, which are not always exact repeats. Equal values may be shown once. Read-outs that look alike come from different tables or passages of the source.
Columns and labels:
Assay type in all cases: cell-based
[1] = test system: store-operated Ca^2+ entry in PLP-B lymphocytes; assay: Store-operated Ca2+ entry after thapsigargin depletion of ER Ca2+ stores in PLP-B lymphocytes; settings: for inhibition at 0.1 µM / inhibition at 1 µM / inhibition at 10 µM / inhibition at 50 µM / inhibition at 100 µM / Effect on amplitude of SOCE peak: PLP-B lymphocytes, % of inhibition (−) or activation; for IC50: SOCE in PLP-B lymphocytes, average of three assays, ±0.5 μM
Method: (§1) The effects of the molecules developed were tested on PLP-B lymphocytes. Store-operated Ca^2+ entry was induced by depletion of Endoplasmic Reticulum Ca^2+ stores (ER Ca^2+ stores) with thapsigargin (Tg) in a Ca^2+-free medium and measured following the addition of 1.8 mM of CaCl2) in the extracellular medium. The results are compared to the results obtained for known SOCE inhibitors SKF-96365, GSK-7975A, Synta 66.

[2] = test system: store-operated Ca^2+ entry in HEK 293; assay: Store-operated Ca2+ entry in HEK 293 cell line; settings: for Effect on amplitude of SOCE peak: % of inhibition (−) or activation
Method: as §1
(§2) Then, effects of the molecule that gave the best results in this test (i.e., molecule 6αa) were assessed in two cancer cell lines, namely: HEK 293 and HEK 651 HS1 tumor cell lines.

[3] = test system: store-operated Ca^2+ entry in HEK 651 HS1; assay: Store-operated Ca2+ entry in HEK 651 HS1 cell line; settings: for Effect on amplitude of SOCE peak: % of inhibition (−) or activation; for IC50: average of three assays, ±0.5 μM
Method: as §1, §2

[4] = test system: SOCE in JOK B cells; assay: Intracellular calcium levels / SOCE in JOK B cells (Fura-2AM, FlexStation 3); settings: for amplitude of SOCE: 5 and 20 μM, compared to control, irrespective of incubation time (5, 15, 30 minutes, 1 hour)
Method: Intracellular calcium levels were monitored at 37° C. using the FlexStation 3™ (Molecular Devices, Berkshire, UK), a fluorescence plate reader measuring time-resolved intracellular Ca^2+ concentration in a 96-well format with cells loaded with the dual-wavelength fluorescent calcium-sensitive dye Fura-2AM.
Intracellular Ca^2+ stores were depleted with 2 μM Thapsigargin (an inhibitor of ER SERCA pumps) under Ca^2+-free conditions to determine the magnitude of intracellular Ca^2+ release. Next, the cells were returned to Ca^2+-containing Hepes-buffered solution to measure SOCE. The magnitude of SOCE was estimated as the maximal values of normalized fluorescence ratio following Ca^2+ re-addition.

[5] = test system: JOK cells; assay: JOK cell viability and apoptosis assays (LIVE/DEAD, Annexin V-FITC/PI); settings: JOK B cells (FIG. 7); 5 or 20 μM; treated for 48 hours
Method: Cell Viability Assays. JOK cells were treated with test compounds (GSK-7975-A, SKF-93365 and 6αa) or solvent for 48 hours. JOK cells viability was then assessed using LIVE/DEAD cell viability assays kit (Abcam). Differentially labeled live and dead cells with fluorescent dyes are analyzed by flow cytometry.
Apoptosis Assay. Apoptosis of JOK cells were determined by Annexin V-FITC/PI staining (Biolegend) using flow cytometry. The percentage of annexin V-FITC and propidium iodide-[…] cells were assessed using Kaluza 1.3.

[6] = test system: HUVEC cells; assay: HUVEC cell death (Annexin/Propidium Iodide, flow cytometry); settings: HUVEC (FIG. 8); 5 or 20 μM; treated for 48 hours
Method: FIG. 8. In vitro Effects of 6αa, GSK-7975-A and SKF-93365 on HUVEC Cell Death. […] Cell death was analyzed by flow cytometry following Annexin/Propidium Iodide labeling. Percentages of living cells, necrotic cells and apoptotic cells submitted to GSK-7975A (A), SKF-93365 (B), and 6αa (DAD 3-473) (C) treatment were normalized to the DMSO treatment conditions. Histograms present the amounts of apoptotic cells (annexin/PI positive cells) detected in each experimental condition after treatment with GSK-7975A (D), SKF-93365 (E), and 6αa (DAD 3-473) (F). Data are expressed as mean±SEM of n observations (n=2). Data are analyzed with non parametric Mann Withney analysis, *P<0.05, **P<0.01 and ***P<0.001.

[7] = test system: PANC-1 cells; assay: PANC-1 cytotoxicity (Cell Tox green assay); settings: 5 and 20 μM, 24 hours
Method: Analysis of Cell Proliferation. For PANC-1 cell proliferation and cell cytotoxicity measurements, […] were seeded in 96 well-plates in 100 μL of DMEM medium. Cells were incubated for 24 hours at 37° C. with 3 different SOCE inhibitors (GSK-7975-A, SKF-93365 and 6αa) at 2 different concentrations (5 and 20 μM) compared to DMSO and untreated cells. Cell proliferation was evaluated using the Cell Titer kit proliferation assay (Promega). Cytotoxicity was evaluated using the Cell Tox green cytotoxicity assay (Promega). All the kits were used following manufacturer recommendations and using a plate reader.

[8] = test system: JOK cells; assay: Migration of JOK cells through HUVEC in transwells; settings: 5 or 20 μM
Method: Migration Protocol. Migration chambers (transwells) (Transwell 5.0 m polycarbonate membrane Costar) were coated overnight (37° C., 5% CO2) with 100 μL of fibronectine solution containing BSA (1 mg/ml) and LHC Basal Medium. Primary HUmbilical Vein Endothelial Cells (HUVEC) were seeded in each transwell (100 000/well) and cultured for 24 hours (37° C., 5% CO2). To evaluate B cell migration, JOK cells were added (300 000/well) to each transwell upper chamber containing RPMI 1640 medium (BioWest) containing 0.5% BSA and SDF1 (200 ng/ml) was added in the bottom chamber. Cells were cultures in the presence or absence of a test compound (GSK-7975-A, SKF-93365 and 6αa) or solvent. After 24 hours (37° C., 5% CO2), migrated cells were collected in the bottom chambers and counted by flow cytometry. The percentages of migration were calculated for each experimental collection.

Row | SMILES | Effect on amplitude of SOCE peak ([2]; 0.1 μM) [%] | Effect on amplitude of SOCE peak ([2]; 1 μM) [%] | Effect on amplitude of SOCE peak ([2]; 5 μM) [%] | Effect on amplitude of SOCE peak ([2]; 10 μM) [%] | Effect on amplitude of SOCE peak ([2]; 50 μM) [%] | Effect on amplitude of SOCE peak ([3]; 0.1 μM) [%] | Effect on amplitude of SOCE peak ([3]; 1 μM) [%] | Effect on amplitude of SOCE peak ([3]; 5 μM) [%] | Effect on amplitude of SOCE peak ([3]; 10 μM) [%] | Effect on amplitude of SOCE peak ([3]; 50 μM) [%] | IC50 [3] [µM] | amplitude of Ca2+ release from the endoplasmic stores [4] | amplitude of SOCE [4] | apoptosis or necrosis of cells [5] | apoptosis or necrosis of cells [6] | cytotoxicity in cancer PANC-1 cells [7] | further results
1 | COc1ccc(CCCOC(Cn2ccnc2)c2ccc(OC)cc2)cc1 (centres unmarked) [SKF-96365] | −25 | −21 | −23 | −4 | −33 | −8 | −6 | −9 | −17 | −63 | 40 | not found to be significantly affected | significantly reduces | do not induce apoptosis or necrosis | do not induce apoptosis or necrosis | no cytotoxic effects | inhibition at 0.1 µM ([1]; Lymphocyte, DMSO control 100%, read-out: Effect on amplitude of SOCE Peak): 3.4%; inhibition at 0.1 µM ([1]; Lymphocyte, thapsigargin (Tg) peak, read-out: Effect on amplitude of Tg Peak): -2.4%; inhibition at 1 µM ([1]; Lymphocyte, 1 μM, DMSO control 100%, read-out: Effect on amplitude of SOCE Peak): 26.4%; inhibition at 1 µM ([1]; Lymphocyte, 1 μM, thapsigargin (Tg) peak, read-out: Effect on amplitude of Tg Peak): -6.5%; inhibition at 10 µM ([1]; Lymphocyte, 10 μM, DMSO control 100%, read-out: Effect on amplitude of SOCE Peak): 15.4%; inhibition at 10 µM ([1]; Lymphocyte, 10 μM, thapsigargin (Tg) peak, read-out: Effect on amplitude of Tg Peak): 6.6%; inhibition at 50 µM ([1]; Lymphocyte, 50 μM, DMSO control 100%, read-out: Effect on amplitude of SOCE Peak): 44.3%; inhibition at 50 µM ([1]; Lymphocyte, 50 μM, thapsigargin (Tg) peak, read-out: Effect on amplitude of Tg Peak): 11.1%; inhibition at 100 µM ([1]; Lymphocyte, 100 μM, DMSO control 100%, read-out: Effect on amplitude of SOCE Peak): 58.7%; inhibition at 100 µM ([1]; Lymphocyte, 100 μM, thapsigargin (Tg) peak, read-out: Effect on amplitude of Tg Peak): 8%; IC50 ([1]; Lymphocyte): 60 µM
2 | O=C(Nc1ccn(Cc2ccc(O)cc2C(F)(F)F)n1)c1c(F)cccc1F [GSK-7975A] | −7 | −31 | −66 | −75 | −87 | 0 | −2 | −19 | −22 | −72 | 44 | not found to be significantly affected | significantly reduces | do not induce apoptosis or necrosis | do not induce apoptosis or necrosis | no cytotoxic effects | Effect on amplitude of SOCE peak ([1]; 1 μM, DMSO control 100%): 19.0% and 9.0%; Effect on amplitude of SOCE peak ([1]; 10 μM, DMSO control 100%): −9.0%; Effect on amplitude of SOCE peak ([1]; 50 μM, DMSO control 100%): −88.0%; Effect on amplitude of SOCE peak ([1]; 100 μM, DMSO control 100%): −94.0%; IC50 [1]: 2.3 µM; IC50 ([2]; average of three assays, ±0.5 μM): 2 µM; transendothelial migration through HUVEC of JOK cells [8]: does not
